The record followed here is publication PMC467095 (Journal of Enzyme Inhibition and Medicinal Chemistry, 2024).

Experiment [1] deals with α-glucosidase. Kind of experiment: α-Glucosidase inhibition assay. The experiment is classed as biochemical. The following applies: for IC50: read-out: α-Glucosidase IC50, Table 3, DF = 100.
In experiment [2] the test system is STZ-induced diabetes in mice. Kind of experiment: Plasma insulin. In kind it is in vivo. As to conditions: two weeks of treatment, mean of 6 mice ± SEM.
Experiment [3] relates to STZ-induced diabetes in mice. Kind of experiment: Oxidative stress markers. The following applies: plasma, two weeks of treatment, mean of 6 mice ± SEM. The experiment is classed as in vivo.
In experiment [4] the test system is STZ-induced diabetes in mice. The experiment is described as follows: Kidney function parameters. In kind it is in vivo. As to conditions: two weeks of treatment, mean of 6 mice ± SEM; for Urea: plasma.
For experiment [5], the system named is STZ-induced diabetes in mice. The experiment is described as follows: Liver function markers. In kind it is in vivo. As to conditions: plasma, two weeks of treatment, mean of 6 mice ± SEM.
The test system of experiment [6] is STZ-induced diabetes in mice. The experiment is described as follows: Blood glucose in STZ-induced diabetes in mice. The experiment is classed as in vivo. The following applies: p < 0.05.

As usually defined, the IC50 is the concentration needed to halve the response being measured. In the case of `O=C1CSC(N=C2c3ccccc3-c3nc4cc(F)ccc4nc32)=N1` [Compound 4], the IC50 in experiment [1] was 10.2 µM. For the same compound, in experiment [2], the Insulin is listed as 11.44 ± 0.2^a^,^b ng/mL.

Turning to `CCC1SC(NN=C2c3ccccc3-c3nc4cc(F)ccc4nc32)=NC1=O` (centres unmarked) [Compound 16], in experiment [1], the IC50 stood at 7.03 µM. Moreover, the “α-glucosidase inhibition IC50” value in experiment [1] (± SD) is reported as “good activity”. Further, in experiment [2], the Insulin was 9.34 ± 0.3^a^,^b ng/mL.

`CCOC(=O)c1sc(N=C2c3ccccc3-c3nc4cc(F)ccc4nc32)nc1C` [Compound 6]: the IC50 in experiment [1] was determined as 3 µM. In addition, in experiment [2], the Insulin is reported as 12.28 ± 0.3^a^,^b ng/mL.

As for `Cc1ccc(S(=O)(=O)NC(=O)NN2CC3CCCC3C2)cc1` (centres unmarked) [Gliclazide], the GSH in experiment [3] is 3.15 ± 0.05^a^,^b; in experiment [3] (listed as gliclazide), “significant elevation”. Besides, the results for the MDA in experiment [3] and in experiment [3] (listed as gliclazide) were 22 ± 0.2^a^,^b and “significant reduction”, respectively. In addition, in experiment [4] (plasma creatinine), the Creat was 3.3 ± 0.1^a^,^b. Besides, the figures for the Urea in experiment [4] and in experiment [4] (listed as gliclazide) were 57.5 ± 0.3^a^,^b and “significant lowering”, respectively. Also, the results for the ALT in experiment [5] and in experiment [5] (listed as gliclazide) were 53.7 ± 0.7^a^,^b and “significant reduction”, respectively. In addition, the AST is listed as 39.8 ± 0.3^a^,^b in experiment [5] and “significant reduction” in experiment [5] (listed as gliclazide). For the same compound, the “Blood sugar levels compared to the STZ-only treatment group” value in experiment [6] is recorded as “declined significantly”. The Insulin was 14.52 ± 0.4^a^,^b ng/mL in experiment [2] and “rose” in experiment [2] (listed as gliclazide).

Regarding `CC(=O)c1sc(NN=C2c3ccccc3-c3nc4cc(F)ccc4nc32)nc1C` [Compound 8, 1–(2-(2–(7-fluoro-11H-indeno[1,2-b]quinoxalin-11-ylidene)-hydrazineyl)-4-methyl-thiazol-5-yl)-ethan-1-one], the IC50 in experiment [1] was found to be 0.982 µM. In addition, in experiment [2], the Insulin is 10.5 ± 0.3^a^,^b ng/mL.
